The source of these data is ChEMBL document CHEMBL1137081, “Conformationally constrained analogues of diacylglycerol. 20. The search for an elusive binding site on protein kinase C through relocation of the carbonyl pharmacophore along the sn-1 side chain of 1,2-diacylglycerol lactones” (J Med Chem, 2004).

A word on the Ki: it is a dissociation constant, usually derived from enzyme kinetics or from competition with a known ligand. Higher therefore signals a looser hold on the target.

The target in this assay is Protein kinase C alpha type (Homo sapiens, UniProt P17252). Nature of the assay: Displacement of [20-3H]-phorbol 12,13-dibutyrate (PDBU) from protein kinase C alpha with phosphatidylserine.
The compound `CCCCCCCCC(=O)OCCC1(CO)C/C(=C/CC(C(C)C)C(C)C)C(=O)O1` (stereo unspecified) had a Ki of 208 nM.
Then `CCCCCCCC(=O)OCCCC1(CO)CC(=CCC(C(C)C)C(C)C)C(=O)O1` (stereo unspecified), with 1430 nM; and `CCCCCCCCCOC(=O)CC1(CO)C/C(=C\CC(C(C)C)C(C)C)C(=O)O1` (stereo unspecified), with 62.2 nM.
Then `CCCCCCCC(=O)OCCCC1(CO)C/C(=C/CC(C(C)C)C(C)C)C(=O)O1` (stereo unspecified), with 736 nM; and `CCCCCCCCCOC(=O)CC1(CO)C/C(=C/CC(C(C)C)C(C)C)C(=O)O1` (stereo unspecified), with 55.7 nM; and `CCCCCCCCC(=O)OCCC1(CO)C/C(=C\CC(C(C)C)C(C)C)C(=O)O1` (stereo unspecified), with 459 nM.
